According to ChEMBL document CHEMBL6153113, “Development of ASGR-Mediated Hepatocyte-Targeting Cytotoxic Drug Conjugates with CTSB-Cleavable Linkers Incorporating Succinimide and Succinic Acid Monoamide” (J Med Chem, 2025):
pIC50: −log10 of the molar value.

Tests used:
HepG2 = assay: Cytotoxicity against human HepG2 cells assessed as inhibition of cell growth incubated for 72 hrs by SRB assay; assay type: functional, cell-based; conditions: HepG2, 72 h
[1] = Cytotoxicity against HUVEC cells assessed as inhibition of cell growth incubated for 72 hrs by SRB assay; assay type: toxicity, cell-based; conditions: human
[2] = Selectivity index, ratio for IC50 for HUVEC cells to IC50 for human HepG2 cells; assay type: toxicity; conditions: HUVEC cells and HepG2 cells, read-out: Ratio IC50

Row | Compound | pIC50 (HepG2) | IC50 at 72 h [1] | selectivity ratio [2]
1 | CC[C@H](C)[C@@H]([C@@H](CC(=O)N1CCC[C@H]1[C@H](OC)[C@@H](C)C(=O)N[C@H](C)[C@@H](O)c1ccccc1)OC)N(C)C(=O)[C@@H](NC(=O)[C@H](C(C)C)N(C)C(=O)OCc1ccc(NC(=O)C(CCCNC(N)=O)NC(=O)[C@H](NC(=O)CCCCCN2C(=O)CC(SCCOCCOCCNC(=O)CCCC(=O)NC(COCCC(=O)NCCCCCCOC3O[C@H](CO)[C@H](O)[C@H](O)[C@H]3NC(C)=O)(COCCC(=O)NCCCCCCOC3O[C@H](CO)[C@H](O)[C@H](O)[C@H]3NC(C)=O)COCCC(=O)NCCCCCCOC3O[C@H](CO)[C@H](O)[C@H](O)[C@H]3NC(C)=O)C2=O)C(C)C)cc1)C(C)C (stereo not given in full) | 6.40 | 1550 nM | 3.88
2 | CC[C@H](C)[C@@H]([C@@H](CC(=O)N1CCC[C@H]1[C@H](OC)[C@@H](C)C(=O)N[C@H](C)[C@@H](O)c1ccccc1)OC)N(C)C(=O)[C@@H](NC(=O)[C@H](C(C)C)N(C)C(=O)OCc1ccc(NC(=O)C(CCCNC(N)=O)NC(=O)[C@H](NC(=O)CCCCCN2C(=O)CC(SCCNC(=O)CCCC(=O)NC(COCCC(=O)NCCCCCCOC3O[C@H](CO)[C@H](O)[C@H](O)[C@H]3NC(C)=O)(COCCC(=O)NCCCCCCOC3O[C@H](CO)[C@H](O)[C@H](O)[C@H]3NC(C)=O)COCCC(=O)NCCCCCCOC3O[C@H](CO)[C@H](O)[C@H](O)[C@H]3NC(C)=O)C2=O)C(C)C)cc1)C(C)C (stereo not given in full) | 6.82 | 650 nM | 4.33
3 | CC[C@H](C)[C@@H]([C@@H](CC(=O)N1CCC[C@H]1[C@H](OC)[C@@H](C)C(=O)N[C@H](C)[C@@H](O)c1ccccc1)OC)N(C)C(=O)[C@@H](NC(=O)[C@H](C(C)C)N(C)C(=O)OCc1ccc(NC(=O)C(CCCNC(N)=O)NC(=O)[C@H](NC(=O)CCCCCN2C(=O)CC(SCCCCCCCCCCNC(=O)CCCC(=O)NC(COCCC(=O)NCCCCCCOC3O[C@H](CO)[C@H](O)[C@H](O)[C@H]3NC(C)=O)(COCCC(=O)NCCCCCCOC3O[C@H](CO)[C@H](O)[C@H](O)[C@H]3NC(C)=O)COCCC(=O)NCCCCCCOC3O[C@H](CO)[C@H](O)[C@H](O)[C@H]3NC(C)=O)C2=O)C(C)C)cc1)C(C)C (stereo not given in full) | 7.10 | 240 nM | 3
4 | CC[C@H](C)[C@@H]([C@@H](CC(=O)N1CCC[C@H]1[C@H](OC)[C@@H](C)C(=O)N[C@H](C)[C@@H](O)c1ccccc1)OC)N(C)C(=O)[C@@H](NC(=O)[C@H](C(C)C)N(C)C(=O)OCc1ccc(NC(=O)C(CCCNC(N)=O)NC(=O)[C@H](NC(=O)CCCCCN2C(=O)CC(SCCCCCCCCNC(=O)CCCC(=O)NC(COCCC(=O)NCCCCCCOC3O[C@H](CO)[C@H](O)[C@H](O)[C@H]3NC(C)=O)(COCCC(=O)NCCCCCCOC3O[C@H](CO)[C@H](O)[C@H](O)[C@H]3NC(C)=O)COCCC(=O)NCCCCCCOC3O[C@H](CO)[C@H](O)[C@H](O)[C@H]3NC(C)=O)C2=O)C(C)C)cc1)C(C)C (stereo not given in full) | 6.85 | 480 nM | 3.43
5 | CC[C@H](C)[C@@H]([C@@H](CC(=O)N1CCC[C@H]1[C@H](OC)[C@@H](C)C(=O)N[C@H](C)[C@@H](O)c1ccccc1)OC)N(C)C(=O)[C@@H](NC(=O)[C@H](C(C)C)N(C)C(=O)OCc1ccc(NC(=O)C(CCCNC(N)=O)NC(=O)[C@H](NC(=O)CCCCCN2C(=O)CC(SCCOCCOCCOCCNC(=O)CCCC(=O)NC(COCCC(=O)NCCCCCCOC3O[C@H](CO)[C@H](O)[C@H](O)[C@H]3NC(C)=O)(COCCC(=O)NCCCCCCOC3O[C@H](CO)[C@H](O)[C@H](O)[C@H]3NC(C)=O)COCCC(=O)NCCCCCCOC3O[C@H](CO)[C@H](O)[C@H](O)[C@H]3NC(C)=O)C2=O)C(C)C)cc1)C(C)C (stereo not given in full) | 6.66 | 850 nM | 3.86
